These results are taken from US20150126465A1, “PROCESS FOR PRODUCING DERIVATIVES OF PYROSTEGIA VENUSTA, DERIVATIVES OF PYROSTEGIA VENUSTA, PHARMACEUTICAL COMPOSITIONS AND ITS USES” (priority 2011, published 2015).

The assay can be described thus: DPPH antioxidant test. The format is biochemical. The following applies: 517 nm. On the procedure:
The antioxidant activity evaluation was performed through DPPH test.
Extract flower ethanol samples and PV6.7 were dissolved in methanol in concentrations of 1 mg.mL-1, 500 μg, mL-1, 250 μg, mL-1, 125 μg, mL-1, 62.5 μg, mL-1 and 31.25 μg, mL-1. As control Metabissulfito and Rutin were used in the same conditions of the samples.
Around 0.002 g of DPPH was dissolved in 50 mL of methanol. Then, it was verified the solution absorbance in spectrophotometer, in 517 nm, which must be below 1.
In a plastic Eppendorf, it was added 950 μL of methanolic solution of DPPH and 50 μL of the sample. As white, it was used in the place of the sample 50 μL of methanol. The samples were then incubated for 15 minutes at 30° C. After this period, the solutions were transferred to cuvettes and performed the readings at 517 nm, zeroing the spectrophotometer with methanol.
% inhibition=B−A/B×100, being A=sample, and B=White

The structures appear in SMILES notation.

With `O=S([O-])S(=O)(=O)[O-].[Na+].[Na+]` [Metabissulfito], the “Antioxidant Activity Percentage” value (sample 31.25 μg · mL^−1, 15 minutes at 30° C.) turned out to be 0%; the “Antioxidant Activity Percentage” value (sample 62.5 μg · mL^−1, 15 minutes at 30° C.) was determined as 0%; the “Antioxidant Activity Percentage” value (sample 125 μg · mL^−1, 15 minutes at 30° C.) came to 1.33%; the “Antioxidant Activity Percentage” value (sample 250 μg · mL^−1, 15 minutes at 30° C.) was 4.62%; the “Antioxidant Activity Percentage” value (sample 500 μg · mL^−1, 15 minutes at 30° C.) is 8.63%; the “Antioxidant Activity Percentage” value (sample 1 mg · mL^−1, 15 minutes at 30° C.) is 15.3%.
